Measurements as given in PMC6387968, “An in vitro ADME and in vivo Pharmacokinetic Study of Novel TB-Active Decoquinate Derivatives” (Frontiers in Pharmacology, 2019).

Experiments:
[1] = in vitro; format: in vitro ADME
Protocol: Compound solutions prepared in DMSO were diluted in phosphate buffer (final concentration = 1 μg/mL), and were spiked into human plasma and microsomal fractions (total volume = 1 mL). Aliquots were then transferred in duplicate to: (i) a final concentration plate that was immediately quenched with 23.6 ng/mL internal standard (IS, carbamazepine) in ACN, (ii) a degradation control, which was placed in a water bath at 37°C for 4 h, and (iii) ultracentrifuge tubes, which were centrifuged for 4 h at 37°C and 30 000 × g. All reactions were stopped by the addition of ACN containing 23.6 ng/mL carbamazepine. The samples were subjected to liquid chromatography-tandem mass spectrometry (LC-MS/MS) analysis on an AB Sciex 4000 Q Trap hybrid triple quadrupole linear ion-trap MS (AB Sciex, Framingham, MA, United States) coupled to an Agilent 1200 HPLC (Agilent) with a reverse-phase Gemini-C18 analytical column (5 μm, 50 mm × 2 mm; Phenomenex) at 35°C. Mobile phases comprised 0.1% FA in water, and 0.1% FA in ACN. The flow rate was 600 μL/min with a run time of 6 min. A gradient elution was employed (Table 2).

[2] = in vitro; format: in vitro ADME; conditions: microsomes
Protocol: RMB041, -043, and -073 ([…]) prepared in DMSO were incubated separately with 530 μL mouse and human microsomes (0.4 mg/mL) at 37°C with the cofactor NADPH (1 mM). Compounds were assessed at 0 and 60 min. The reaction was stopped by the addition of ice-cold ACN containing IS (carbamazepine, 23.6 ng/mL). The samples were analyzed via LC-MS/MS using the instrumentation and conditions described above. The in vitro half-life, intrinsic clearance rate, and hepatic extraction ratio were predicted using results from this assay in the following equations ([Obach, 1999]). Metabolic stability was assessed as the compound’s depletion from a starting concentration of […] over 1 h in mouse and human microsomal fractions. The in vitro half-life can be predicted from this assay. The linear regression from a graph relating natural logarithmic percentage of the compound remaining versus the incubation time was used to calculate the half-life, CLint, and EH.

[3] = format: in vitro ADME; conditions: pH 7.4
Protocol: The permeability of the compounds was assessed via a PAMPA using a 96-well multiscreen filter plate ([…]). The filter plate was coated with 5% hexadecane in hexane and was allowed to dry before starting the assay. Lucifer yellow was added to the apical side of the filter plate in each well containing test compound solutions prepared in DMSO. A solution of each compound was diluted into phosphate buffer at pH 7.4 (final concentration = 1 μg/mL) and was added to the apical portion of the donor plate. The acceptor plate was filled with blank buffer (pH 7.4). The plates were slotted into each other and agitated at 80 rpm for 4 h at 22°C. Samples from donor and theoretical equilibrium wells were matrix-matched with blank phosphate buffer at pH 7.4. Samples were treated with ACN containing IS (carbamazepine, 23.6 ng/mL) and were submitted for LC-MS/MS analysis on an Agilent Rapid Resolution HPLC and AB Sciex 4500 MS. […] [Wohnsland and Faller, 2001]; [Jung et al., 2006]). where, VA is the volume of the acceptor compartment (0.25 cm^3), VD is the volume of the donor compartment (0.15 cm^3), A is the accessible filter area (0.024 cm^2), and t is the incubation time (s). The peak areas of the samples were used to determine the Papp of each compound using Eq. 3. Papp=C × -ln(1-Acceptor […]/Donor […])

[4] = for Autosampler stability (48 h), Low / Stability, murine whole-blood (-80 °C freeze-thaw), Low / Stability, murine whole-blood (ice, 2 h), Low: 10 ng/mL; for Autosampler stability (48 h), High / IV formulation stability, High / Oral formulation stability, High / Stability, murine whole-blood (-80 °C freeze-thaw), High / Stability, murine whole-blood (ice, 2 h), High: 4000 ng/mL; for IV formulation stability, High / Oral formulation stability, High / Stability, murine whole-blood (ice, 2 h), Low / Stability, murine whole-blood (ice, 2 h), High: 2 h; for Stability, murine whole-blood (-80 °C freeze-thaw), Low / Stability, murine whole-blood (-80 °C freeze-thaw), High / Stability, murine whole-blood (ice, 2 h), Low / Stability, murine whole-blood (ice, 2 h), High: mouse
Protocol: The LC-MS/MS method used was partially validated by assessing recovery from mouse whole-blood, bench-top stability (3 h), auto-sampler stability (48 h), formulation stability (oral and IV, 2 h), freeze-thaw stability (3 cycles), and matrix effects (details in Supplementary Material). Partial method validation, comprising several tests to determine whether the compounds were stable in each possible experimental situation involved with sample collection, storage, and processing, was performed. These tests included: (i) compound stability in mouse whole-blood (on ice and at -80°C), (ii) compound stability in the autosampler, (iii) compound stability in oral and intravenous formulations, (iv) matrix effects (ME), and (v) compound recovery. In this study, stability is reported as a percentage, reflecting the stability of the compound in relation to a fresh sample prepared just before analysis.

[5] = human, plasma, Plasma protein (fraction unbound)
[6] = human, plasma, percentage plasma protein binding

| Compound | fraction unbound at 4 h, 1 μg/mL ([1]; human, microsomes) | fraction unbound at 4 h, 1 μg/mL [1, 5] | fraction unbound at 4 h, 1 μg/mL [1, 6] | fraction unbound at 4 h, 1 μg/mL ([1]; microsomes) | half-life at 0.1 M [2] | microsomal CLint at 0.1 M [2] | PAMPA Log Papp [3] | Autosampler stability (48 h), Low [4] | Autosampler stability (48 h), High [4] | IV formulation stability, High [4] | Oral formulation stability, High [4] | Stability, murine whole-blood (-80 °C freeze-thaw), Low [4] | Stability, murine whole-blood (-80 °C freeze-thaw), High [4] | Stability, murine whole-blood (ice, 2 h), Low [4] | Stability, murine whole-blood (ice, 2 h), High [4] |
| --- | --- | --- | --- | --- | --- | --- | --- | --- | --- | --- | --- | --- | --- | --- | --- |
| CCCCCCCCCCOc1cc2c(=O)c(C(=O)NCCOCCO)cn(CC)c2cc1OCC [RMB041] | 0.053 | 0.1 | 0.104 | 0.06 | > 2.5 h | < 20 µL/min/mg | -4.8 | 92.1% | 94.1% | 90.3% | 98.0% | 99.2% | 98.7% | 89.2% | 91.2% |
| CCCCCCCCCCOc1cc2c(=O)c(C(=O)NCCNCCO)cn(CC)c2cc1OCC [RMB043] | 0.053 | 0.23 | 0.221 | 0.06 | < 1.67 h | < 110 µL/min/mg | -4.8 | 99.8% | 99.1% | 93.1% | 89.0% | 91.3% | 92.5% | 102.4% | 109.0% |
| CCCCCCCCCCOc1cc2c(=O)c(C(=O)NCCOCCO)cn(CCO)c2cc1OCC [RMB073] | 0.114 | 0.16 | 0.156 | 0.11 | > 2.5 h | < 20 µL/min/mg | -4.5 | 105.3% | 102.0% | 98.8% | 89.3% | 89.5% | 97.3% | 87.6% | 92.3% |
